This is an account of results in patent US7521454B2 (Dainippon Sumitomo Pharma Co., Ltd., priority 2001, dated 2009).

Converted amounts (≈) assume the structure as drawn.

One series deals with Balb/c male mouse. The series is described as follows: Interferon-inducing activity in mouse (in vivo), serum interferon titer after oral dosing.
Series [1] is described as follows: Solubility in citric acid/disodium phosphate buffers. To be noted: for solubility at 30 min: thermodynamic from solid.
Experimental: 5.53% citric acid (monohydrate) and 1.75% disodium phosphate (anhydrous) were mixed together to prepare buffers (pH 2.5, 5.5, 7.4). A compound was added thereto, the mixture was stirred in a vortex mixer and subjected to ultrasonication for 30 minutes. Thereafter, the resultant was stirred in a vortex mixer again and then centrifuged at 15,000 rpm for 20 minutes. The levels of the compounds in the supernatants were then quantified by HPLC.
The next series relates to mouse spleen cell. Put plainly: cells. In kind it is cell-based. To be noted: Mus musculus, 24 h, read-out: Interferon-inducing activity: Minimum effective concentration.
In a further series the test system is IL-5 production. The series is described as follows: Inhibitory activity against Th2 cytokine produced from sensitized spleen cells: IL-5. The series is classed as cell-based, mouse. To be noted: Mus musculus, 72 h, read-out: Inhibitory activity against IL-5 production. The procedure: (§1) A 7-week-old BALB/c mouse was immunized intraperitoneally with aluminum hydroxide gel (4 mg, 100 μl) having 10 μg of ovalbumin adsorbed thereon, and it was subjected to additional immunization with the same agent 14 days later. Seven days thereafter, spleen was taken out, and suspended in RPMI-1640 comprising inactivated fetal bovine serum (10%), 2-mercaptoethanol ([…]), penicillin G (100 U/ml), and streptomycin (100 μg/ml). Thus, a splenic cell suspension was prepared. Ovalbumin (0.5 mg/ml) and a test compound were added to a splenic cell suspension (5×10^6 cell/200 μl/well), and the resultant was cultured at 37° C. in the presence of 5% CO2 for 3 days. The cytokine level in the culture supernatant was quantified by ELISA. IFN-γ and IL-4 were assayed using a kit available from Amersham, and IL-5 was assayed using a kit available from Endogen.

A further series has as its system IL-4 production. The series is described as follows: Inhibitory activity against Th2 cytokine produced from sensitized spleen cells: IL-4. In kind it is cell-based, mouse. To be noted: Mus musculus, 72 h, read-out: Inhibitory activity against IL-4 production. Here is the method: as §1
[2] abbreviates: citric acid/disodium phosphate buffer, pH 2.5, aqueous buffer.
Where [3] appears, read: citric acid/disodium phosphate buffer, pH 5.5, aqueous buffer.
[4] abbreviates: citric acid/disodium phosphate buffer, pH 7.4, aqueous buffer.
The mark [5] stands for this setting: dosage 0.1 mg/kg oral, serum 2 h after dosing, Balb/c mouse.
Setting [6] is: dosage 0.3 mg/kg oral, serum 2 h after dosing, Balb/c mouse.

For `CCCCOc1nc(N)c2nc(O)n(Cc3cccnc3C)c2n1` [Example 26, 2-Butoxy-8-hydroxy-9-(2-methyl-3-pyridylmethyl)adenine], the Interferon-inducing activity in the series with Balb/c male mouse (po, 0.03 mg/kg, 2 h) is on record as 121 ± 11 U/ml; with Balb/c male mouse (po, 0.1 mg/kg, 2 h) it was 433 ± 366 U/ml; in the series on Balb/c male mouse (po, 0.3 mg/kg, 2 h), 780 ± 190 U/ml. The results for the solubility at 30 min in series [1] (setting [2]), in series [1] (setting [3]) and in series [1] (setting [4]) were above 1000 µg/mL, 6 µg/mL (≈ 18.3 µM) and 3 µg/mL (≈ 9.14 µM), respectively. For the same compound, the minimal effective concentration with mouse spleen cell worked out at 0.001 µM.
In turn, `CCCCOc1nc(N)c2nc(O)n(Cc3ccc(N4CCCCC4)nc3)c2n1` [Example 13, 2-Butoxy-9-(6-piperidino-3-pyridylmethyl)-8-hydroxyadenine] returned an Interferon-inducing activity in the series with Balb/c male mouse (po, 0.3 mg/kg, 2 h) of 304 ± 138 U/ml. In the series on mouse spleen cell, the minimal effective concentration was 0.003 µM.
For `CCCCOc1nc(N)c2nc(O)n(Cc3ccc(N4CCOCC4)nc3)c2n1` [Example 15, 2-Butoxy-9-(6-morpholino-3-pyridylmethyl)-8-hydroxyadenine], the Interferon-inducing activity in the series on Balb/c male mouse (po, 0.1 mg/kg, 2 h) is reported as 52 ± 32 U/ml; in the series on Balb/c male mouse (po, 0.3 mg/kg, 2 h) it was 603 ± 147 U/ml. Further, the solubility (usually how much of the substance goes into solution per volume) at 30 min in series [1] (setting [2]) was 140 µg/mL (≈ 350 µM); in series [1] (setting [3]), 1 µg/mL (≈ 2.5 µM); in series [1] (setting [4]), below 1 µg/mL. Moreover, the minimal effective concentration in the series with mouse spleen cell amounted to 0.001 µM.
In the case of `CCCCOc1nc(N)c2nc(O)n(Cc3ccc(OCC)nc3)c2n1` [Example 3, 2-Butoxy-9-(6-ethoxy-3-pyridylmethyl)-8-hydroxyadenine], the Interferon-inducing activity turned out to be 353 ± 73 U/ml with Balb/c male mouse (po, 0.1 mg/kg, 2 h) and 1966 ± 532 U/ml in the series with Balb/c male mouse (po, 0.3 mg/kg, 2 h). Also, the minimal effective concentration in the series on mouse spleen cell came out at 0.001 µM.
As for `CCCCOc1nc(N)c2nc(O)n(Cc3cccnc3)c2n1` [Example 8, 2-Butoxy-8-hydroxy-9-(3-pyridylmethyl)adenine], the Interferon-inducing activity in the series on Balb/c male mouse (po, 0.01 mg/kg, 2 h) was found to be 13 ± 5 U/ml; in the series with Balb/c male mouse (po, 0.03 mg/kg, 2 h) it was 167 ± 97 U/ml; with Balb/c male mouse (po, 0.1 mg/kg, 2 h) it was 725 ± 141 U/ml; in the series with Balb/c male mouse (po, 0.3 mg/kg, 2 h), 936 ± 438 U/ml. In addition, the solubility at 30 min in series [1] (setting [2]) turned out to be 784 µg/mL (≈ 2490 µM); in series [1] (setting [3]), 20 µg/mL (≈ 63.6 µM); in series [1] (setting [4]), 18 µg/mL (≈ 57.3 µM). In addition, the minimal effective concentration in the series on mouse spleen cell turned out to be 0.001 µM.
In the series with Balb/c male mouse (po, 0.3 mg/kg, 2 h), `CCCCNc1nc(N)c2nc(O)n(Cc3ccc(N(C)C)nc3)c2n1` [Example 24, 2-Butylamino-9-(6-dimethylamino-3-pyridylmethyl)-8-hydroxyadenine] gave an Interferon-inducing activity of 403 ± 146 U/ml. Besides, the figures for the solubility at 30 min in series [1] (setting [2]), in series [1] (setting [3]) and in series [1] (setting [4]) were 27000 µg/mL (≈ 75800 µM), 22 µg/mL (≈ 61.7 µM) and 1 µg/mL (≈ 2.81 µM), respectively. Besides, the minimal effective concentration in the series with mouse spleen cell worked out at 0.003 µM.
For `CCCCOc1nc(N)c2nc(O)n(Cc3cccnc3Cl)c2n1` [Example 5, 2-Butoxy-9-(2-chloro-3-pyridylmethyl)-8-hydroxyadenine], the Interferon-inducing activity in the series with Balb/c male mouse (po, 0.1 mg/kg, 2 h) came out at 133 ± 33 U/ml; with Balb/c male mouse (po, 0.3 mg/kg, 2 h), 473 ± 9 U/ml. Further, the minimal effective concentration with mouse spleen cell was found to be 0.003 µM.
As for `COc1nc(N)c2nc(O)n(Cc3cccnc3)c2n1` [Example 32, 8-Hydroxy-2-methoxy-9-(3-pyridylmethyl)adenine], the solubility at 30 min is above 1000 µg/mL in series [1] (setting [2]), 82 µg/mL (≈ 301 µM) in series [1] (setting [3]) and 25 µg/mL (≈ 91.8 µM) in series [1] (setting [4]).
`CCCCOc1nc(N)c2nc(O)n(Cc3ccncc3)c2n1` [Example 9, 2-Butoxy-8-hydroxy-9-(4-pyridylmethyl)adenine] displayed an Interferon-inducing activity in the series on Balb/c male mouse (po, 0.3 mg/kg, 2 h) of 539 ± 107 U/ml. For the same compound, the figures for the solubility at 30 min in series [1] (setting [2]), in series [1] (setting [3]) and in series [1] (setting [4]) were 350 µg/mL (≈ 1110 µM), 4 µg/mL (≈ 12.7 µM) and 3 µg/mL (≈ 9.54 µM), respectively. In addition, the minimal effective concentration in the series with mouse spleen cell was found to be 0.003 µM.
On to `CCCCNc1nc(N)c2nc(O)n(Cc3cccnc3Cl)c2n1` [Example 18, 2-Butylamino-9-(2-chloro-3-pyridylmethyl)-8-hydroxyadenine], for which the Interferon-inducing activity with Balb/c male mouse (po, 0.3 mg/kg, 2 h) is listed as 94 ± 49 U/ml. The minimal effective concentration with mouse spleen cell was 0.01 µM.
Regarding `CCCCOc1ccc(Cn2c(O)nc3c(N)nc(OCCCC)nc32)cn1` [Example 4, 2-Butoxy-9-(6-n-butoxy-3-pyridylmethyl)-8-hydroxyadenine], the minimal effective concentration in the series with mouse spleen cell was found to be 0.01 µM.
`CCCCNc1nc(N)c2nc(O)n(Cc3ccc(Cl)nc3Cl)c2n1` [Example 23, 2-Butylamino-9-(2,6-dichloro-3-pyridylmethyl)-8-hydroxyadenine]: the figures for the Interferon-inducing activity in the series with Balb/c male mouse (setting [5]) and in the series on Balb/c male mouse (setting [6]) were 42 ± 7 U/ml and 414 ± 118 U/ml, respectively. The minimal effective concentration with mouse spleen cell came out at 0.01 µM.
`CCCCOc1nc(N)c2nc(O)n(Cc3cnccn3)c2n1` [Example 10]: the Interferon-inducing activity is listed as 89 ± 22 U/ml in the series with Balb/c male mouse (dosage 0.03 mg/kg oral, serum 2 h after dosing, Balb/c mouse); 409 ± 267 U/ml in the series on Balb/c male mouse (setting [5]); 733 ± 256 U/ml in the series on Balb/c male mouse (setting [6]). The activity at 0.001 µM came out at 91% with IL-5 production and 54% in the series with IL-4 production. Also, the results for the activity at 0.01 µM in the series with IL-5 production and in the series on IL-4 production were 32% and 3%, respectively. Also, the activity at 0.1 µM is 15% with IL-5 production and below 1% in the series on IL-4 production. Further, the solubility at 30 min in series [1] (pH 2.5, aqueous buffer) was determined as 34 µg/mL (≈ 108 µM); in series [1] (pH 5.5, aqueous buffer) it was 15 µg/mL (≈ 47.6 µM); in series [1] (pH 7.4, aqueous buffer), 10 µg/mL (≈ 31.7 µM).
As for `COCCOc1nc(N)c2nc(O)n(Cc3cccnc3)c2n1` [Example 31, 8-Hydroxy-2-(2-methoxy)ethoxy-9-(3-pyridylmethyl)adenine], the entries for the “Solubility (level of compound in supernatant)” value in series [1] (pH 2.5 buffer), in series [1] (pH 5.5 buffer) and in series [1] (pH 7.4 buffer) were >1,000 μg/ml, 353 µg/mL and 322 µg/mL, respectively.
As for `CCCCOc1nc(N)c2nc(O)n(Cc3cccnc3OC)c2n1` [Example 6, 2-Butoxy-8-hydroxy-9-(2-methoxy-3-pyridylmethyl)adenine], the Interferon-inducing activity stood at 569 ± 42 U/ml in the series on Balb/c male mouse (po, 0.1 mg/kg, 2 h) and 1222 ± 248 U/ml with Balb/c male mouse (po, 0.3 mg/kg, 2 h). Also, in the series on mouse spleen cell, the minimal effective concentration turned out to be 0.001 µM.
In the series on Balb/c male mouse (setting [6]), `CCCCOc1nc(N)c2nc(O)n(Cc3ccc(Cl)nc3Cl)c2n1` [Example 12, 2-Butoxy-9-(2,6-dichloro-3-pyridylmethyl)-8-hydroxyadenine] had an Interferon-inducing activity of 31 ± 5 U/ml. Besides, the minimal effective concentration in the series on mouse spleen cell worked out at 0.01 µM.
Consider `CCCCOc1nc(N)c2nc(O)n(Cc3cnc(Cl)c(OC)c3)c2n1` [Example 7, 2-Butoxy-9-(6-chloro-5-methoxy-3-pyridylmethyl)-8-hydroxyadenine], for which the results for the Interferon-inducing activity in the series with Balb/c male mouse (setting [5]) and in the series on Balb/c male mouse (setting [6]) were 347 ± 149 U/ml and 845 ± 22 U/ml, respectively. In addition, the minimal effective concentration in the series with mouse spleen cell is 0.001 µM.
In the case of `CCCCOc1nc(N)c2nc(O)n(Cc3cnc(Cl)c(Cl)c3)c2n1` [Example 11, 2-Butoxy-9-(5,6-dichloro-3-pyridylmethyl)-8-hydroxyadenine], the values for the Interferon-inducing activity with Balb/c male mouse (setting [5]) and in the series with Balb/c male mouse (setting [6]) were 279 ± 177 U/ml and 568 ± 160 U/ml, respectively. The minimal effective concentration in the series on mouse spleen cell was determined as 0.003 µM.
As to `CCCCOc1nc(N)c2nc(O)n(Cc3ccc(N4CCCC4)nc3)c2n1` [Example 14, 2-Butoxy-9-(6-(1-pyrrolidinyl)-3-pyridylmethyl)-8-hydroxyadenine], the Interferon-inducing activity in the series with Balb/c male mouse (po, 0.3 mg/kg, 2 h) stood at 570 ± 63 U/ml. In the series on mouse spleen cell, the minimal effective concentration is 0.001 µM.
In turn, `CCCCNc1nc(N)c2nc(O)n(Cc3ccc(C)nc3Cl)c2n1` [Example 29, 2-Butylamino-9-(2-chloro-6-methyl-3-pyridylmethyl)-8-hydroxyadenine] showed an Interferon-inducing activity with Balb/c male mouse (setting [6]) of 619 ± 268 U/ml. Further, the minimal effective concentration in the series with mouse spleen cell came to 0.01 µM.
